Laboratory results as given in patent US20240287089A1, “Preparation and Uses of 7-Azaindenoisoquinolines” (Purdue Research Foundation, priority 0001, published 2024).
Read-outs that look alike come from different tables or passages of the source.

What was measured:
[1] = system: RS4;11 human leukemia cells; assay: RS4;11 xenograft in female NOD SCID mice; assay type: in vivo
Procedure: (§1) Xenograft Studies. […] JQ1 was employed as a positive control.
The compounds were also evaluated in an RS4;11 human leukemia xenograft model (FIGS. 20 and 21). Treatment was started 12 days after tumor inoculation, with drugs being administered on days 1-5 and 11-15 after the start of treatment. Animal weights and tumor volumes were determined at 12, 15, 19, 22, and 25 days after tumor inoculation.

[2] = mouse, 1 μM
Procedure: Analysis of Plasma Protein Binding and Stability in Human and Mouse Blood Plasma by Equilibrium Dialysis. Frozen plasma (stored at −80° C.) was thawed immediately in a 37° C. water bath. The working solutions of test compound and control compound were prepared in DMSO at 200 μM concentration, and the working solutions were spiked into plasma. The final concentration of compound was 1 μM. The final concentration of DMSO was 0.5%. Ketoconazole was used as positive control in the assay. The dialysis membranes were soaked in ultrapure water for 60 min to separate strips, then in 20% ethanol for 20 min, and then finally in dialysis buffer for 20 min. For equilibrium dialysis, each cell contained plasma sample (150 μL) and was dialyzed against an equal volume of dialysis buffer (PBS). The assay was performed in duplicate. The dialysis plate was sealed and incubated at 37° C. with 5% CO2 at 100 rpm for 6 h. At the end of incubation, samples (50 μL) from both buffer and plasma chambers were transferred to wells of a 96-well plate. Plasma (50 μL) was added to each buffer sample and an equal volume of PBS was added to the collected plasma sample. […] The concentrations of test compounds in the buffer and plasma chambers were determined from peak area ratios.

[3] = Pharmacokinetics IV and PO in male CD1 mice
[4] = system: RD-ES human sarcoma tumor cells; assay: RD-ES xenograft in female NOD SCID mice; assay type: in vivo; conditions: 20 mg/kg IV
Procedure: as §1
Similar studies were performed after inoculation of female NOD SCID mice with RD-ES human sarcoma tumor cells (FIGS. 16-19). The tumors grew much more rapidly and treatment was started on day 8 after tumor inoculation, with measurements of body weights and tumor sizes being made on days 8, 12, 15, 19, and 22 after tumor inoculation. […] The average RD-ES tumor sizes were much larger than observed with MOLT-4 (2327±285 vs. 546±59 mm^3).

[5] = system: MOLT-4 human leukemia cells; assay: MOLT-4 xenograft in female NOD SCID mice; assay type: in vivo; conditions: 20 mg/kg IV, 24 days after tumor inoculation
Description: as §1

[6] = system: MYC mRNA in MCF-7 breast cancer cells; assay: qRT-PCR of MYC mRNA; assay type: cell-based; conditions: MCF-7, 1.0 μM, 6 h
Procedure: Quantitative Reverse Transcriptase PCR (qRT-PCR). MCF-7 cells were grown and treated in 12-well tissue culture plates until collection. Total RNA was extracted using TRIzol reagent (15596018, Life Technologies). Purified RNA was dissolved in DEPC water and quantified. 1 μg purified RNA per sample was converted to cDNA using qScript cDNA SuperMix (84034, Quantabio) according to manufacturer's instruction. Real-time PCR reagents were made for each sample by mixing 1 μL synthesized cDNA, 3 μL PCR-grade water, 5 μL SYBR Green reagent (A25742, Applied Biosystem), and 0.25 μL each primer for Myc and GAPDH. Reactions were set up in triplicate for each target of each sample. Real-time PCR was conducted in 96-well PCR plates with a QuantStudio 6 Flex Real-Time PCR System (Life Technologies). The cycling condition was 95° C. for 5 min, followed by 40 cycles at 95° C. for 15 s, 60° C. for 15 s, and 72° C. for 15 s. The relative Myc expression was calculated using the 2^−ΔΔCt method by normalizing against GAPDH as the endogenous control.

[7] = male, mouse, microsomes, 1 μM
[8] = dogs, same time points; cited from earlier work
DU-145 (Prostate) = conditions: Prostate DU-145; reference 20; read-out: Cytotoxicity GI50; cited from earlier work
[9] = Brain penetration and plasma/brain pharmacokinetics in CD1 mice; conditions: for Brain Conc / Brain/Plasma Conc Ratio / Plasma Conc: 20 mg/kg IV
Procedure: Brain Penetration Studies. […] The concentrations were determined by LC-MS/MS with direct measurement of the plasma samples. The brain tissue was homogenized with water using a 3:1 ratio of water (mL) to brain (g) before determination of the concentrations (ng/mL) in the brain homogenates, and the homogenate values then were multiplied by a factor of 4 to obtain the brain concentrations (ng/g).

HCT-116 (Colon) = conditions: Colon HCT-116; reference 20; read-out: Cytotoxicity GI50; cited from earlier work
[10] = male, CD1, mouse, plasma, iv, 1 mg/kg
[11] = brain, IV 20 mg/kg, male CD1 mice
[12] = plasma, IV 20 mg/kg, male CD1 mice

What does the source list for `COc1cc2c3c(n(CCCNCCO)c(=O)c2cc1OC)-c1nc2c(cc1C3=O)OCO2` [G105, 6-(3-((2-Hydroxyethyl)amino)propyl)-2,3-dimethoxy-5H-[1,3]dioxolo[4″,5″:5′,6′]pyrido[3′,2′:4,5]cyclopenta[1,2-c]isoquinoline-5,12(6H)-dione]?
toxicity estimated from decrease in animal weight ([1]; 20 mg/kg IV): most toxic; reduction of tumor volume ([1]; IV days 1-5 and 11-15, G105 20 mg/kg, G104 15 and 30 mg/kg): most potent; % Stability at 6 hrs [2]: 97.59%; AUCInf ([3]; IV 1 mg/kg, male CD1 mice): 155 ng·h/mL; AUClast ([3]; IV 1 mg/kg, male CD1 mice): 151 ng·h/mL; AUClast/D ([3]; IV 1 mg/kg, male CD1 mice): 151 ng·h/mL; AUC—% Extrap—obs ([3]; IV 1 mg/kg, male CD1 mice): 2.61%; C0 ([3]; IV 1 mg/kg, male CD1 mice): 177 ng/mL; Cl_obs ([3]; IV 1 mg/kg, male CD1 mice): 107 mL/min/kg; MRTInf—obs ([3]; IV 1 mg/kg, male CD1 mice): 1.49 h; T1/2 ([3]; IV 1 mg/kg, male CD1 mice): 1.84 h; AUCInf ([3]; PO 10 mg/kg, male CD1 mice): 28.8 ng·h/mL; AUClast ([3]; PO 10 mg/kg, male CD1 mice): 18.0 ng·h/mL; AUClast/D ([3]; PO 10 mg/kg, male CD1 mice): 1.80 ng·h/mL; AUC—% Extrap—obs ([3]; PO 10 mg/kg, male CD1 mice): 37.3%; Cmax ([3]; PO 10 mg/kg, male CD1 mice): 3.50 ng/mL; F (fraction of the dose absorbed) ([3]; PO 10 mg/kg, male CD1 mice): 1.19%; MRTInf—obs ([3]; PO 10 mg/kg, male CD1 mice): 7.86 h; T1/2 ([3]; PO 10 mg/kg, male CD1 mice): 5.20 h; Tmax ([3]; PO 10 mg/kg, male CD1 mice): 0.500 h; Vd [3, 10]: 9.62 L/kg; half-life [3, 10]: 1.84 h; half-life ([3]; male, CD1, mouse, plasma, po, 10 mg/kg): 5.2 h; potency on tumor size [4]: most potent; average animal weight relative to initial body weight [5]: 80.9±1.1%; MYC mRNA level [6]: significantly lowered MYC mRNA levels; Scaled-up CLint [7]: 14.10 mL/min/kg; T1/2 [7]: 7.1658 h; in vitro CLint [7]: 3.22 μL/min/mg protein

For `COc1cc2c3c(n(CCCNCCO)c(=O)c2cc1OC)-c1cc2c(cc1C3=O)OCO2` [LMP744], which “mean tumor concentration relative to plasma concentration” value [8] is on record?
Its value is “at least 100 times”.

And the GI50 (DU-145 (Prostate))?
Its GI50 is under 10 nM.

And the “Brain Conc” value ([9]; 0.25 h)?
The value was 941 ± 158 nM.

What about the “Brain/Plasma Conc Ratio” value ([9]; 0.25 h) of the same molecule?
Its value is 0.65.

What about the “Plasma Conc” value ([9]; 0.25 h) of the same molecule?
The value was 1434 ± 123 nM.

What about the “Brain Conc” value ([9]; 0.5 h) of the same molecule?
Its value is 582 ± 380 nM.

What about the “Brain/Plasma Conc Ratio” value ([9]; 0.5 h) of the same molecule?
Its value is 0.34.

And the “Plasma Conc” value ([9]; 0.5 h)?
Its value is 1712 ± 945 nM.

What about the “Brain Conc” value ([9]; 1 h) of the same molecule?
Its value is 802 ± 122 nM.

And the “Brain/Plasma Conc Ratio” value ([9]; 1 h)?
The value was 0.90.

What about the “Plasma Conc” value ([9]; 1 h) of the same molecule?
The value was 894 ± 194 nM.

And the “Brain Conc” value ([9]; 2 h)?
Its value is 743 ± 136 nM.

What about the “Brain/Plasma Conc Ratio” value ([9]; 2 h) of the same molecule?
Its value is 1.39.

And the “Plasma Conc” value ([9]; 2 h)?
Its value is 535 ± 103 nM.

What about the “Brain Conc” value ([9]; 4 h) of the same molecule?
Its value is 857 ± 162 nM.

What about the “Brain/Plasma Conc Ratio” value ([9]; 4 h) of the same molecule?
Its value is 5.44.

What about the “Plasma Conc” value ([9]; 4 h) of the same molecule?
The value was 154 ± 14 nM.

What about the “Brain Conc” value ([9]; 8 h) of the same molecule?
The value was 759 ± 188 nM.

And the “Plasma Conc” value ([9]; 8 h)?
Its value is 86 ± 31 nM.

What about the “Brain Conc” value ([9]; 24 h) of the same molecule?
Its value is 524 ± 166 nM.

And the “Brain/Plasma Conc Ratio” value ([9]; 24 h)?
The value was 27.1.

What about the “Plasma Conc” value ([9]; 24 h) of the same molecule?
The value was 23 ± 5 nM.

What about the AUClast [9, 11] of the same molecule?
Its AUClast is 7606 ng·h/g.

What about the “AUC—% Extrap—obs” value [9, 11] of the same molecule?
The value was 72%.

What about the Cmax [9, 11] of the same molecule?
The Cmax was 413 ng/g.

And the Tmax [9, 11]?
Its Tmax is 0.25 h.

What about the AUCInf [9, 12] of the same molecule?
The AUCInf was 2132 ng·h/mL.

And the AUClast [9, 12]?
Its AUClast is 2022 ng·h/mL.

What about the “AUC—% Extrap—obs” value [9, 12] of the same molecule?
The value was 5.16%.

And the C0 [9, 12]?
Its C0 is 1943 ng/mL.

And the Cl_obs [9, 12]?
Its Cl_obs is 156 mL/min/kg.

And the “MRTInf—obs” value [9, 12]?
Its value is 5.14 h.

And the T1/2 [9, 12]?
Its T1/2 is 7.48 h.

What about the “Vss—obs” value [9, 12] of the same molecule?
Its value is 48.2 L/kg.

What about the GI50 (HCT-116 (Colon)) of the same molecule?
The GI50 was 100 nM.
